Data from ChEMBL document CHEMBL1201862, “PubChem BioAssay data set” (2004).
Several values for one entry are separate records, joined by “and”; a condition that tells them apart may be missing. Equal entries are not always repeated. Activity calls are given as the source filed them.

Key:
[1] = target: Polyadenylate-binding protein 1 (Homo sapiens, UniProt P11940); test: PABP poly(A) RNA binding inhibitors, primary screen, biochemical, fluorescence polarization, uHTS (AID 2014)
[2] = target: T1, DNA dC->dU-editing enzyme APOBEC-3G (Homo sapiens, UniProt Q9HC16); format: functional
[3] = target: T2, DNA dC->dU-editing enzyme APOBEC-3A (Homo sapiens, UniProt P31941); test: Dose Response confirmation of small molecule APOBEC3A DNA Deaminase Inhibitors via a fluorescence-based single-stranded DNA deaminase assay. [Related pubchem assays (depositor defined):AID493011, AID493024]; format: functional
[4] = target: Eukaryotic translation initiation factor 4H (Homo sapiens, UniProt Q15056); test: human eIF4H binding inhibitors, primary screen, translation initiation inhibitor project, biochemical, uHTS, fluorescence polarization (AID 2012)
Cytochrome P450 2D6 = Cytochrome P450 2D6 (Homo sapiens, UniProt P10635); test: qHTS Assay for Inhibitors and Substrates of Cytochrome P450 2D6. [Related pubchem assays: 410 ]; format: ADME; settings: read-out: Potency
Cytochrome P450 2C9 = Cytochrome P450 2C9 (Homo sapiens, UniProt P11712); settings: Potency
Oxytocin receptor = Oxytocin receptor (Homo sapiens, UniProt P30559); test: Fluorescence-based cell-based high throughput dose response assay for agonists of the Oxytocin Receptor (OXTR). [Related pubchem assays: 2435 (Primary screen (OXTR agonists in singlicate)), 434991 (Counterscreen (V1R agonists in triplicate)), 2482 (Summary (OXTR agonists)), 434963 (Confirmation screen (OXTR agonists in triplicate))]; format: functional
[5] = target: T3, Voltage-gated N-type calcium channel alpha-1B subunit/Amyloid beta A4 precursor protein-binding family A member 1 (Homo sapiens, UniProt Q00975+Q02410); format: protein assay
[6] = growth suppression of PTEN-null colon cells, dose response, cell-based, HCT116 PTEN knockout (AID 1047); format: functional;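 further: HCT116 colon tumor cells with PTEN knocked out; cells exposed to compound for 60 hours before readout; potency for loss of cell viability measured by luminescence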
[7] = target: T3, Voltage-gated N-type calcium channel alpha-1B subunit/Amyloid beta A4 precursor protein-binding family A member 1; format: protein assay; remark: listed apart in the source
[8] = target: Eukaryotic translation initiation factor 4E (Mus musculus, UniProt P63073); test: eIF4E–eIF4G protein interaction inhibitors, dose response, biochemical, TR-FRET (AID 855); format: functional;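 further: potency for disrupting eIF4E binding to eIF4GI seen as loss of FRET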
[9] = target: T1, DNA dC->dU-editing enzyme APOBEC-3G; test: Dose Response confirmation of small molecule APOBEC3G DNA Deaminase Inhibitors via a fluorescence-based single-stranded DNA deaminase assay. [Related pubchem assays (depositor defined):AID493012, AID493028]; format: functional
[10] = target: T2, DNA dC->dU-editing enzyme APOBEC-3A; test: APOBEC3A DNA deaminase inhibitors, dose response, biochemical (AID 504722); format: functional
Vasopressin V1a receptor = Vasopressin V1a receptor (Homo sapiens, UniProt P37288); test: Counterscreen for Oxytocin Receptor (OXTR) agonists: Fluorescence-based cell-based high throughput dose response assay to identify agonists of the vasopressin 1 receptor (V1R). [Related pubchem assays: 2435 (Primary screen (OXTR agonists in singlicate)), 434991 (Counterscreen (V1R agonists in triplicate)), 2482 (Summary (OXTR agonists)) …; format: functional
HeLa = test: HeLa cell cytotoxicity, dose response, cytotoxicity control, 24 h, cherry-picked samples (AID 504726); format: functional, cell-based; settings: Homo sapiens;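 further: potency for cytotoxicity as loss of luminescence signal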
[11] = cytotoxicity in HPDE-C7 cells, cell-based, fluorescence, HTS (AID 430); format: functional; settings: Homo sapiens
[12] = cytotoxicity in KRAS-transformed pancreatic duct cells, primary screen, cell-based, fluorescence, HTS (AID 431); format: functional; settings: Homo sapiens;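 further: cell line used: HPDE-C7K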
[13] = target: G-protein coupled receptor 55 (Homo sapiens, UniProt Q9Y2T6); test: GPR55 agonists via beta-arrestin recruitment, primary screen, imaging, U2OS cells, beta-arrestin-GFP redistribution (AID 1961); format: functional
[14] = target: Acyl-homoserine lactone acylase PvdQ (Pseudomonas aeruginosa (strain LESB58), UniProt Q9I194); test: P. aeruginosa PvdQ acylase inhibitors, dose response, biochemical, fluorescence, plate reader and imaging, cherry-picks (AID 493231)
Interleukin-8 [15] = target: T4, Interleukin-8 (Homo sapiens, UniProt P10145); test: SAR analysis of GM-Tri-DAP induced IL-8 secretion in MCF-7/NOD1 cells - Set 2. [Related pubchem assays (depositor defined):AID1575, AID1578, AID2333]; format: functional, cell-based
T4 sequence (P10145 whole entry): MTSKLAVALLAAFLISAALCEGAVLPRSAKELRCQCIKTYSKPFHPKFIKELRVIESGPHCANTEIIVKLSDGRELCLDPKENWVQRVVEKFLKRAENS

Tumor necrosis factor = Tumor necrosis factor (Homo sapiens, UniProt P01375); test: TNFa-triggered NF-kB activation inhibitors, SAR follow-up, cell-based, revised (AID 2337); format: functional
Interleukin-8 [16] = target: T4, Interleukin-8; test: SAR analysis of Tumor necrosis factor alpha (TNF-alpha) induced IL-8 secretion in MCF-7/NOD1 cells - Set 2. [Related pubchem assays (depositor defined):AID1575, AID2250, AID2260]; format: functional, cell-based
[17] = target: Potassium voltage-gated channel subfamily KQT member 2 (Rattus norvegicus, UniProt O88943); test: retigabine-insensitive KCNQ2 potentiators, concentration-response, dose response, cell-based, retigabine-insensitive compounds (AID 2654); format: functional
INS1 = test: beta cell apoptosis inhibitors, cytokine rescue, dose response, luminescence, retest (AID 449756); format: functional, cell-based; settings: Rattus norvegicus;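 further: cell death triggered by IL-1 beta plus TNF-alpha plus IFN-gamma mixture; protective hits raise ATP signal compared with cytokine alone wells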
cells [18] = format: functional
[19] = Vero E6 cell cytotoxicity, dose response, cytotoxicity control for non-replicating M. tuberculosis project, secondary assay (AID 492998); format: functional, VeroE6; settings: Vero C1008
cells [20] = test: cells
[21] = test system: Streptococcus sp. 'group A'; test: growth inhibition of control SK(-) GAS strain, dose response, counter-screen for streptokinase expression inhibitor project, luminescence, kanamycin, BacTiterGlo, confirmation (AID 1900); format: functional, organism-based
Streptococcus = test: Group A Streptococcus viability loss, dose response, counter-screen for streptokinase expression inhibitor project, luminescence, BacTiterGlo (AID 1915); format: functional, organism-based;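 further: potency for reduction of bacterial viability or growth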
[22] = Luminescence-based dose response cell-based high throughput screening assay for cytotoxic compounds using the IEC-6 intestinal epithelial cell line. [Related pubchem assays: 1858 (Summary AID.), 1825 (Counterscreen.), 1907 (Confirmation screen.)]; format: functional
[23] = inhibitors of intracellular T. cruzi replication, confirmation, NIH3T3 host cells, beta-gal luminescence (AID 2044); format: functional, cell-based;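 further: intracellular parasites grown in NIH/3T3 mouse fibroblasts as host cells; luminescent beta-galactosidase reporter signal from transgenic T. cruzi replicating inside host cells; inhibitors lower the luminescence signal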
[24] = HepG2 cell cytotoxicity, dose response, cytotoxicity control for non-replicating M. tuberculosis project (AID 489018); format: functional; settings: Mycobacterium tuberculosis
[25] = cytotoxicity toward NIH3T3 fibroblasts, dose response, counter-screen, cell-based, ATP luminescence, mouse fibroblasts (AID 2010); format: functional;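 further: cells exposed to compound for about 90 hours before reading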
[26] = THP-1 cell cytotoxicity, dose response, cytotoxicity control for non-replicating M. tuberculosis project (AID 489025); format: functional
ORF 73 = ORF 73 (Human herpesvirus 8, UniProt O40947); test: inhibitors of C-LANA binding to LBS DNA, dose response, biochemical, fluorescence polarization, cherry-picked samples (AID 504725); set-up: species or system Human gammaherpesvirus 8;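 further: fluorescence polarization of a labeled DNA duplex reporting LANA DNA binding; potency is for inhibitors that block LANA binding to the DNA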
[27] = target: Ras and Rab interactor 1/Tyrosine-protein kinase ABL1 (Homo sapiens, UniProt P00519+Q13671); format: functional;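 further: biochemical TR-FRET dose-response test measuring inhibition of binding between Rin1 and Abl proteins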
[28] = target: T5, Carboxy-terminal domain RNA polymerase II polypeptide A small phosphatase 1 (Homo sapiens, UniProt Q9GZU7); test: inhibitors of CTDSP1, concentration-response testing, biochemical assay, absorbance-based, actives from ultra-high-throughput screening (AID 540297); format: functional
T5 sequence (Q9GZU7 whole entry): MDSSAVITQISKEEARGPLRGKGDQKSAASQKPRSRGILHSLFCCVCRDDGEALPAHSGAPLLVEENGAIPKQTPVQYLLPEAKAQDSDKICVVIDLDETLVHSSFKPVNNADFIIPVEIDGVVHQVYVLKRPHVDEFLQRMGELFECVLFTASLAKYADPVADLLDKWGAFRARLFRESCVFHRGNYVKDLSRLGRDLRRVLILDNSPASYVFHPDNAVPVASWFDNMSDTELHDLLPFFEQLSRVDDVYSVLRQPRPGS

T2 sequence (P31941 whole entry): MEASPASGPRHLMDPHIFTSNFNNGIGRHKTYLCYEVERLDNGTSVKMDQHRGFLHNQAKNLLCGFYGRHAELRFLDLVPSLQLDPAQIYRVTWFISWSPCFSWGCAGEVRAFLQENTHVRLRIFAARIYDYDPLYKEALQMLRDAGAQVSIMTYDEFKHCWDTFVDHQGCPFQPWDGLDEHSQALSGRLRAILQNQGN
T1 sequence (Q9HC16 whole entry): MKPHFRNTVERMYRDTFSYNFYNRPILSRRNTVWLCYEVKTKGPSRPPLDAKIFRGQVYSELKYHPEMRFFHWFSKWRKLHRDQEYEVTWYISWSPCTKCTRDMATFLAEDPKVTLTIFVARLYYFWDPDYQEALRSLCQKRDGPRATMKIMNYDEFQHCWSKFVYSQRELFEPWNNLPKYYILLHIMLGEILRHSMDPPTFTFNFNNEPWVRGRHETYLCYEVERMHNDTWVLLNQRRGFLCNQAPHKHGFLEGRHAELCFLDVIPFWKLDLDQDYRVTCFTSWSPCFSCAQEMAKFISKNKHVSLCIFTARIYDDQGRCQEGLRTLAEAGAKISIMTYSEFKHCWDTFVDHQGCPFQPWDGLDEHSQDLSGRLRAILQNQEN
T3 sequence (Q00975 whole entry): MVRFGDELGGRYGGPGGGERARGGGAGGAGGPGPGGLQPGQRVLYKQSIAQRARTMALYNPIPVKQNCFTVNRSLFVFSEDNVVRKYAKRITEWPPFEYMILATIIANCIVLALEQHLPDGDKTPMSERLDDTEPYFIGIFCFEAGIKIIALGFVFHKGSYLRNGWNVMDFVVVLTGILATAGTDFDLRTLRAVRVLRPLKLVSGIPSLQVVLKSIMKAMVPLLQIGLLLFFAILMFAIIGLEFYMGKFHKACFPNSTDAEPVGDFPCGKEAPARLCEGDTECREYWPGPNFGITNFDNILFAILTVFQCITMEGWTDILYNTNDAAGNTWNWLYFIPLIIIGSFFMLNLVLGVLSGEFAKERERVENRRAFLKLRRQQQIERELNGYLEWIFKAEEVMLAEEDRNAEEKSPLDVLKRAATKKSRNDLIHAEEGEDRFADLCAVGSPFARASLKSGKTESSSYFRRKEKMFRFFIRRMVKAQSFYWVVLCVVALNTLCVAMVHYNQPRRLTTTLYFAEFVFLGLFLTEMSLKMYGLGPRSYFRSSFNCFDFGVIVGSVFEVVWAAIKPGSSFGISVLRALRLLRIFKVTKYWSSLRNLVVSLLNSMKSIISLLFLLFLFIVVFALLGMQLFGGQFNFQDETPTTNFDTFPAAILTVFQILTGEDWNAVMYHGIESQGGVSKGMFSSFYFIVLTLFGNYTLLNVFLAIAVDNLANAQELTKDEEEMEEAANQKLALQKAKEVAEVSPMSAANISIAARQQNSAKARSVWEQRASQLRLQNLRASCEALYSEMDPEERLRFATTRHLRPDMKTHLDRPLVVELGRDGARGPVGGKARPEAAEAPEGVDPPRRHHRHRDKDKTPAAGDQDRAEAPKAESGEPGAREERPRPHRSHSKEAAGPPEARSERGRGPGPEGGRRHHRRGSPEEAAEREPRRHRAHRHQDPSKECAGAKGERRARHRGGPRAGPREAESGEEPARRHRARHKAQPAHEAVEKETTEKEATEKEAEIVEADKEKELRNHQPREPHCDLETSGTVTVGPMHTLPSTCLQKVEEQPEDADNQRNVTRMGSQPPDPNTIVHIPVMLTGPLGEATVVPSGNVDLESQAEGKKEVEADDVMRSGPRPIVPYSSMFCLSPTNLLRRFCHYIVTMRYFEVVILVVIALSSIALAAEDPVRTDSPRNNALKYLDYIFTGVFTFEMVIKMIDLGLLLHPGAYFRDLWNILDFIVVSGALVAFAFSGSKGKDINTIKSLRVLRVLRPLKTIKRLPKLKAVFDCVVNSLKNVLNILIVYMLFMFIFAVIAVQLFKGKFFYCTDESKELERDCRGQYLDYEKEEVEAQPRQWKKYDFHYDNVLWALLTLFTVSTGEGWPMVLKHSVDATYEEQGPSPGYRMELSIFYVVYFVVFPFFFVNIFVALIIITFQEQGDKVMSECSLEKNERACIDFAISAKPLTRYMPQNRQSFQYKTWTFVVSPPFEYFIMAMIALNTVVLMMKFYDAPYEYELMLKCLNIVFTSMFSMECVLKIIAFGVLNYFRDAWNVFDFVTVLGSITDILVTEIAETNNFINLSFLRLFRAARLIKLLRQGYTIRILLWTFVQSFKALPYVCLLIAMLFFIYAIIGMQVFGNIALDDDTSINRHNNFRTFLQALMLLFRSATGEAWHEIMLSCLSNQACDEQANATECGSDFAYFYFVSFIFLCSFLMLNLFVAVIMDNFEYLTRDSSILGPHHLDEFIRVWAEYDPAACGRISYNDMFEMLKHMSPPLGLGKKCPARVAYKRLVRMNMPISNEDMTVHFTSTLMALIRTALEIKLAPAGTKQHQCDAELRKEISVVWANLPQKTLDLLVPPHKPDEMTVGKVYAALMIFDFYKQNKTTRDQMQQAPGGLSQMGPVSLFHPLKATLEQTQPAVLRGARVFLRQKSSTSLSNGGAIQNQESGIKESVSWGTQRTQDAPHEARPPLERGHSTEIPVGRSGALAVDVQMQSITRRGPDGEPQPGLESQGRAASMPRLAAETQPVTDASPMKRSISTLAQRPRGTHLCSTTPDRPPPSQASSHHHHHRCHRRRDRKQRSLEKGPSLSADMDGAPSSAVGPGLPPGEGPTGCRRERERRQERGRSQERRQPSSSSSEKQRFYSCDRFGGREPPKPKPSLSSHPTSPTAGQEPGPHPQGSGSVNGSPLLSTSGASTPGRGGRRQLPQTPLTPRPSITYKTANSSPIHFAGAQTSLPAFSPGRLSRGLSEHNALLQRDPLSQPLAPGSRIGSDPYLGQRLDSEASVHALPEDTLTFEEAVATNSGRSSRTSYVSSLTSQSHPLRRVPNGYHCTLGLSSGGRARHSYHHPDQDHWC
T3 sequence (Q02410 whole entry): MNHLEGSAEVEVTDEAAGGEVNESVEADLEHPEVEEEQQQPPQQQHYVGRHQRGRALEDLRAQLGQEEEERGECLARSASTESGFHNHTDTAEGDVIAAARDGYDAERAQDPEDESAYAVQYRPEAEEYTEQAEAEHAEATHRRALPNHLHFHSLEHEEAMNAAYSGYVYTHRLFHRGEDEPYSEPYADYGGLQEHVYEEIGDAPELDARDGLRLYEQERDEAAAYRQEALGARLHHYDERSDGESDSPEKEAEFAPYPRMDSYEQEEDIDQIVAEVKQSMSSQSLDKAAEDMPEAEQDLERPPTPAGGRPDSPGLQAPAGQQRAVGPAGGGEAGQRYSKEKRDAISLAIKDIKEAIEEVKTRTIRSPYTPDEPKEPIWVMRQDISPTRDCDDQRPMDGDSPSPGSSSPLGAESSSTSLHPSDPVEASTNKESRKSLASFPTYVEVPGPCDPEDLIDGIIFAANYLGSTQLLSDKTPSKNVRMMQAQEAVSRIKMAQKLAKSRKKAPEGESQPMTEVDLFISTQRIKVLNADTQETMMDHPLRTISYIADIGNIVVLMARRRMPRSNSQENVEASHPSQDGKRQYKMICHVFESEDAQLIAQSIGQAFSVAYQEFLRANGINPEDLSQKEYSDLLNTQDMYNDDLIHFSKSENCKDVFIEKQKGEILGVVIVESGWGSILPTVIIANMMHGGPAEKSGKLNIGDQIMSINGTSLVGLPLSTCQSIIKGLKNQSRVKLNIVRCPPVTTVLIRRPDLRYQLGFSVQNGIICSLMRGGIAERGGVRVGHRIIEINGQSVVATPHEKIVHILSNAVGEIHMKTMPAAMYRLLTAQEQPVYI
Sequence of Cytochrome P450 2C9 (P11712 whole entry): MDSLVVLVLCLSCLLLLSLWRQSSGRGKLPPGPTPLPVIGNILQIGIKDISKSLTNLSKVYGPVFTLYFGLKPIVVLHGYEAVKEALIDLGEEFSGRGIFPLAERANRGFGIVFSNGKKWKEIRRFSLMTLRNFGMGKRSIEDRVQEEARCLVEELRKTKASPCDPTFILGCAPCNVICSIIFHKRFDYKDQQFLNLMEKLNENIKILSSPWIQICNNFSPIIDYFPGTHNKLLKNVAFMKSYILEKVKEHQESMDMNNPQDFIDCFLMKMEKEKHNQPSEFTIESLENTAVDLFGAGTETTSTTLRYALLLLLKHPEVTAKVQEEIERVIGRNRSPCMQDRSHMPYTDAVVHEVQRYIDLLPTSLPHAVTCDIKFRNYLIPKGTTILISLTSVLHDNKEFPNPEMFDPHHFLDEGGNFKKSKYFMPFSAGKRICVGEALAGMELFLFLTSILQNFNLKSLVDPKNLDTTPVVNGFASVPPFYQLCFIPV
Sequence of Potassium voltage-gated channel subfamily KQT member 2 (O88943 whole entry): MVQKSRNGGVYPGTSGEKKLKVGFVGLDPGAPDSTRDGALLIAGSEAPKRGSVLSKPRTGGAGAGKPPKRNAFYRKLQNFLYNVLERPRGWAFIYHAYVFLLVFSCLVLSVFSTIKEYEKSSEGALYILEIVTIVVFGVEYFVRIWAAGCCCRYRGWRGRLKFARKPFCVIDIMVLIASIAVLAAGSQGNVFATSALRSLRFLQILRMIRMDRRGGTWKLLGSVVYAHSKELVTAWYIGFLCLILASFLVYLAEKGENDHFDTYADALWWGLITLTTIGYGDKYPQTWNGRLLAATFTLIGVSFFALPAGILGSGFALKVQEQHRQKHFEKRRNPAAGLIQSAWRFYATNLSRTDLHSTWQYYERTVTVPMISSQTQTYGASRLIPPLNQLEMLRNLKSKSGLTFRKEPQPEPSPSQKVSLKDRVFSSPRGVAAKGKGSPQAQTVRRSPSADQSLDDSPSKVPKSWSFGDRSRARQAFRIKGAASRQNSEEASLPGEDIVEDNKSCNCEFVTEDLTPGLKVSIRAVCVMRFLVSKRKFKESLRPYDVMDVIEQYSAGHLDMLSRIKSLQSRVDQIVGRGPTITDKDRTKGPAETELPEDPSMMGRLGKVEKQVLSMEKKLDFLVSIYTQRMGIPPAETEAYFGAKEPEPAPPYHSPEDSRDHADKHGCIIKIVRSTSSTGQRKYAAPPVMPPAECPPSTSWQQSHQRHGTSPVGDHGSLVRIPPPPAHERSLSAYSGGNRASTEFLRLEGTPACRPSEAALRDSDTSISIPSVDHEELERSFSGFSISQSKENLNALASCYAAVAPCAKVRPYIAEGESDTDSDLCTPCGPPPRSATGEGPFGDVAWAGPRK

**Q.** Which IC50 [1] does the source give for `Cc1nc2ccc(NC(=O)C3COc4ccccc4O3)cc2s1` (centres undefined) here?
**A.** 11.1 µM (active)

**Q.** And the IC50 [2]?
**A.** 6.02 µM (active)

**Q.** And the IC50 [3]?
**A.** 6.32 µM (active)

**Q.** And the IC50 [4]?
**A.** > 100 µM (inactive)

**Q.** Which results are given for `CC(=O)[C@@H]1[C@H]2[C@@H](C(=O)[C@H]3OC[C@H]2O3)[C@@H]2C=Cc3ccccc3N12`?
**A.** AC50 (Cytochrome P450 2D6): 39.8 µM (inconclusive); AC50 (Cytochrome P450 2C9): 31.6 µM (inconclusive)

**Q.** Which results are given for `Cc1cc(Cl)ccc1/N=c1\ssnc1Cl`?
**A.** EC50 (Oxytocin receptor): > 29.9 µM (not active); IC50 [5]: 15.4 µM (active); EC50 [6]: 49 µM (active); IC50 [7]: 2.3 µM (active); IC50 [8]: > 64 µM (inactive); IC50 [9]: 11.9 µM (active); IC50 [10]: > 100 µM (inactive); EC50 (Vasopressin V1a receptor): > 29.9 µM (not active)

**Q.** With `C/C(=N\Nc1nc2c(s1)CCCC2)c1ccc(Cl)cc1` as the molecule, how does the AC50 (HeLa) read?
**A.** 83.5 µM (active)

**Q.** Which results are given for `COc1ccc(C2(O)CC3CCC(C2)N3c2cc(C)nc(-c3ccccc3)n2)cc1` (centres undefined)?
**A.** EC50 [11]: > 20 µM (not active); EC50 [12]: > 20 µM (not active); EC50 [13]: 7.35 µM (active)

**Q.** For `Cc1ccc(C)c(S(=O)(=O)NC2CCSC2=O)c1` (centres undefined), which AC50 [14] is on record?
**A.** 3.22 µM (active)

**Q.** Which AC50 (Cytochrome P450 2C9) does the source give for `COc1ccc(-c2cc(=O)c3ccc(O)cc3o2)cc1` here?
**A.** 3.98 µM (inconclusive)

**Q.** Which results are given for `Nc1nc2ccccc2n1Cc1ccc(Cl)cc1`?
**A.** IC50 (Interleukin-8 [15]): 12.1 µM (active); IC50 (Tumor necrosis factor): 8.92 µM (active) and > 20 µM (inactive); IC50 (Interleukin-8 [16]): 19.8 µM (active)

**Q.** Which EC50 [17] does the source give for `Cc1ccc(NC(=O)Nc2cccnc2)cc1F` here?
**A.** 9.14 µM (active)

**Q.** With `CCC(C)c1ccc(NC(=S)Nc2cccnc2)cc1` (centres undefined) as the molecule, how does the EC50 [17] read?
**A.** 12.6 µM (active)

**Q.** With `C/C(=N\NC(=O)c1ccc(Cl)cc1)c1ccccn1` as the molecule, how does the AC50 (INS1) read?
**A.** 0.34 µM (active)

**Q.** What about the IC50 (cells [18]) of the same molecule?
**A.** 0.8 µM (active)

**Q.** And the CC50 [19]?
**A.** 1.52 µM (active)

**Q.** What about the EC50 (cells [20]) of the same molecule?
**A.** 0.064 µM (active)

**Q.** What about the EC50 [21] of the same molecule?
**A.** 2.33 µM (active)

**Q.** What about the EC50 (Streptococcus) of the same molecule?
**A.** 7.47 µM (active)

**Q.** What about the IC50 [22] of the same molecule?
**A.** 0.546 µM (active)

**Q.** What about the EC50 [23] of the same molecule?
**A.** < 0.1 µM (active)

**Q.** And the CC50 [24]?
**A.** 6.87 µM (active)

**Q.** What about the EC50 [25] of the same molecule?
**A.** 1.04 µM (active)

**Q.** What about the CC50 [26] of the same molecule?
**A.** 0.551 µM (active)

**Q.** With `COc1cc(O)c(C(C)=O)c(CC(=O)O)c1` as the molecule, how does the AC50 (ORF 73) read?
**A.** 46.3 µM (active)

**Q.** And the IC50 [27]?
**A.** 15.6 µM (inactive)

**Q.** And the IC50 [28]?
**A.** 3.5 µM (active)
